Drawing on ChEMBL document CHEMBL5465560, “Selectivity Literature for EUbOPEN Chemogenomic Library” (2024), this text covers % of inhibition and % of control for 8 compounds.

Experiment [1] addresses T1, MAP kinase-activated protein kinase 5 (Homo sapiens) (UniProt Q8IW41).
T1 sequence (whole entry): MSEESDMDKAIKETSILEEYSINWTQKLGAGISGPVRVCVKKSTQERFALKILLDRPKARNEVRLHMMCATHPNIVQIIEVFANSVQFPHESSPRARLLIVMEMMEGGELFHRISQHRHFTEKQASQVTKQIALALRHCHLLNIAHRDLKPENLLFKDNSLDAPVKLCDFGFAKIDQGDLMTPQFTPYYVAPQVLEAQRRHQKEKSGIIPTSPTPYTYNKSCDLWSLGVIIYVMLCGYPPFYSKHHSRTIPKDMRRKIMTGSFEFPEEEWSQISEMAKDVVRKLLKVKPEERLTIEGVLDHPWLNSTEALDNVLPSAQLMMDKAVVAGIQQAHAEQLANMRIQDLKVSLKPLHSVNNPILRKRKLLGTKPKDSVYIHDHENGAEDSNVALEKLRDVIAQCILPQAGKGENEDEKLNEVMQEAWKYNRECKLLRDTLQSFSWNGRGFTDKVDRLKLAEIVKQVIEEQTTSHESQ
Description: Selectivity interaction (Kinase panel (Eurofins)) EUB0001564a MAPKAPK5. Particulars: at 1 µM.

The subject of experiment [2] is Epidermal growth factor receptor (Homo sapiens), P00533 [UNDEFINED MUTATION]. Description: Selectivity interaction (KinomeScan (DiscoverX)) EUB0001619a EGFR. Particulars: at 1 µM.
Experiment [3] has as its target Serine/threonine-protein kinase WNK2 (Homo sapiens) (UniProt Q9Y3S1). The experiment is described as follows: Selectivity interaction (KinomeScan (DiscoverX)) EUB0000695a WNK2. The settings on record: at 100 nM.
The target in experiment [4] is T2, Homeodomain-interacting protein kinase 4 (Homo sapiens) (UniProt Q8NE63).
T2 sequence (whole entry): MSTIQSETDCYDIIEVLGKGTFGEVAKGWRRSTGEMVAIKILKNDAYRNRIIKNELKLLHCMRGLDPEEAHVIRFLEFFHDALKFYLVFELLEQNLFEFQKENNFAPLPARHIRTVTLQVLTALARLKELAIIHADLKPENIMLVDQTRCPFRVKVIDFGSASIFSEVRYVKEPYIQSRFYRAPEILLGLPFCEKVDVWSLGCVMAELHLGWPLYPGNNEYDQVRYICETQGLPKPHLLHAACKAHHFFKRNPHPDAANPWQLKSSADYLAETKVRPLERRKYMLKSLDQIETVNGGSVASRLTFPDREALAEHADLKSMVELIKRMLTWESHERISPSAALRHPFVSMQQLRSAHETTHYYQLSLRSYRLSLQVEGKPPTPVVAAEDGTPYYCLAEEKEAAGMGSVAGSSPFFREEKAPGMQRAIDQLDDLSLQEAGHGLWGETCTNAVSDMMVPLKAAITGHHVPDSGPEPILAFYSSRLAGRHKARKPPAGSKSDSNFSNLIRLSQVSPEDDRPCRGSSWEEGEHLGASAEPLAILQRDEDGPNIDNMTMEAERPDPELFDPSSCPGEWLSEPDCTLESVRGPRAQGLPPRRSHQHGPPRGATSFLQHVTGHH
Particulars: at 10 µM.

Experiment [5] addresses Serine/threonine-protein kinase 10 (Homo sapiens) (UniProt O94804). Particulars: at 10 µM.
Experiment [6] addresses G protein-coupled receptor kinase 6 (Homo sapiens) (UniProt P43250). The experiment is described as follows: Selectivity interaction (Kinase panel (Invitrogen)) EUB0000639a GRK6. The settings on record: at 200 nM.
The target of experiment [7] is Macrophage-stimulating protein receptor (Homo sapiens, UniProt Q04912). The experiment is described as follows: Selectivity interaction (ProQinase) EUB0000171b MST1R.
For experiment [8], the target named is Serine/threonine-protein kinase SIK1 (Homo sapiens) (UniProt P57059). The experiment is described as follows: Selectivity interaction (ProQinase) EUB0000171b SIK1.
Experiment [9] addresses Tyrosine-protein kinase FRK (Homo sapiens) (UniProt P42685). The experiment is described as follows: Selectivity interaction (KinomeScan (DiscoverX)) EUB0001049a FRK. Particulars: at 1 µM.
Experiment [10] has as its target T3, Inhibitor of nuclear factor kappa-B kinase subunit alpha (Homo sapiens) (UniProt O15111).
T3 sequence (whole entry): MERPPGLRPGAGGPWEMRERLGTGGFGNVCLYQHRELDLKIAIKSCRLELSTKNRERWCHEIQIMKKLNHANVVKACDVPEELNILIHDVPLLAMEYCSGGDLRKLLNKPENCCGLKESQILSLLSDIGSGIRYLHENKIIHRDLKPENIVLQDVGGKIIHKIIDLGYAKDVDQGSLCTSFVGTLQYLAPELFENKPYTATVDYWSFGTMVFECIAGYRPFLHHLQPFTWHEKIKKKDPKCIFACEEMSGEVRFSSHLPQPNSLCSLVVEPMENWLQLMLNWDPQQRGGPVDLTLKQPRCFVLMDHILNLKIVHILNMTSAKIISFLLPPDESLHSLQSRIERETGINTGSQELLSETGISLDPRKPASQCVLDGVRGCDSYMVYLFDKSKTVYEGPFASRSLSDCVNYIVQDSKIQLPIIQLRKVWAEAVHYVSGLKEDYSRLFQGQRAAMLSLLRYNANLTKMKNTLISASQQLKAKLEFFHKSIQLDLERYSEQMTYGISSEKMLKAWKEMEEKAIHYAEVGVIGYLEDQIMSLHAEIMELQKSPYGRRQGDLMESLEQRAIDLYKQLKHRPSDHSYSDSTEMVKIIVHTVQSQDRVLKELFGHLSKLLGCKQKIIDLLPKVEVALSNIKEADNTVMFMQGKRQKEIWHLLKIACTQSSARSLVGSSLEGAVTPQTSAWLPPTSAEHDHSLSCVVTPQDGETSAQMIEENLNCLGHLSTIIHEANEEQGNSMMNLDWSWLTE
The experiment is described as follows: Selectivity interaction (KinomeScan (DiscoverX)) EUB0001079a CHUK. Particulars: at 1 µM.

Sequence of Serine/threonine-protein kinase SIK1 (Homo sapiens) (P57059 whole entry): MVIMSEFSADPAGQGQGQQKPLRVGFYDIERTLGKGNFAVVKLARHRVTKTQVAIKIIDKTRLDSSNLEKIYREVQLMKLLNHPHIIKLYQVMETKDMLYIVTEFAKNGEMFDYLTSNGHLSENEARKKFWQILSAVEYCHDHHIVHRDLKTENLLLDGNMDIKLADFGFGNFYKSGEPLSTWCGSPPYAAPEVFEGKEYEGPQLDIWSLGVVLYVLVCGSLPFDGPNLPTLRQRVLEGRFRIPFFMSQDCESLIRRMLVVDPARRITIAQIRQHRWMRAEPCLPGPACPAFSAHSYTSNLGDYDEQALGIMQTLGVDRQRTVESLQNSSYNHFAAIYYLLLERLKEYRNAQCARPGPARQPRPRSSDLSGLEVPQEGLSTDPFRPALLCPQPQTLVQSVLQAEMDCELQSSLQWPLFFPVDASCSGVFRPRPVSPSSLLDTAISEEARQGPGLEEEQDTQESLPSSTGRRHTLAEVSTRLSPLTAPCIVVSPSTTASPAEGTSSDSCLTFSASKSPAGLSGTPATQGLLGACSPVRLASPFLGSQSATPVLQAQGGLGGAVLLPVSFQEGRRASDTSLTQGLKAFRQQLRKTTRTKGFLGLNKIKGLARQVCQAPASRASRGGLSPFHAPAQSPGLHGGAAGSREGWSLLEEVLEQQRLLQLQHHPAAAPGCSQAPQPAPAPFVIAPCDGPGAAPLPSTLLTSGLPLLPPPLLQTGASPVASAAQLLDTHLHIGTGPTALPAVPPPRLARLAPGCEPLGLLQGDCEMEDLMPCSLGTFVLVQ
Sequence of Macrophage-stimulating protein receptor (Q04912 25-304 limits assumed): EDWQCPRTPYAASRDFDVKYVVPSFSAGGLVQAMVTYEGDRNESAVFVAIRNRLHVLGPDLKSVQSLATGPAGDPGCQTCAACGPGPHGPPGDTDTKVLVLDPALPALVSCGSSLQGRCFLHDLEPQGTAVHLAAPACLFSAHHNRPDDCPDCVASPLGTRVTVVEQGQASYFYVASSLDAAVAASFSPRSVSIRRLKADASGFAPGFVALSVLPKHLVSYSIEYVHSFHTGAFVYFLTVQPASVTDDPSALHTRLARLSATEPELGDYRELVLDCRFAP
Sequence of Macrophage-stimulating protein receptor (Q04912 310-1400 limits assumed): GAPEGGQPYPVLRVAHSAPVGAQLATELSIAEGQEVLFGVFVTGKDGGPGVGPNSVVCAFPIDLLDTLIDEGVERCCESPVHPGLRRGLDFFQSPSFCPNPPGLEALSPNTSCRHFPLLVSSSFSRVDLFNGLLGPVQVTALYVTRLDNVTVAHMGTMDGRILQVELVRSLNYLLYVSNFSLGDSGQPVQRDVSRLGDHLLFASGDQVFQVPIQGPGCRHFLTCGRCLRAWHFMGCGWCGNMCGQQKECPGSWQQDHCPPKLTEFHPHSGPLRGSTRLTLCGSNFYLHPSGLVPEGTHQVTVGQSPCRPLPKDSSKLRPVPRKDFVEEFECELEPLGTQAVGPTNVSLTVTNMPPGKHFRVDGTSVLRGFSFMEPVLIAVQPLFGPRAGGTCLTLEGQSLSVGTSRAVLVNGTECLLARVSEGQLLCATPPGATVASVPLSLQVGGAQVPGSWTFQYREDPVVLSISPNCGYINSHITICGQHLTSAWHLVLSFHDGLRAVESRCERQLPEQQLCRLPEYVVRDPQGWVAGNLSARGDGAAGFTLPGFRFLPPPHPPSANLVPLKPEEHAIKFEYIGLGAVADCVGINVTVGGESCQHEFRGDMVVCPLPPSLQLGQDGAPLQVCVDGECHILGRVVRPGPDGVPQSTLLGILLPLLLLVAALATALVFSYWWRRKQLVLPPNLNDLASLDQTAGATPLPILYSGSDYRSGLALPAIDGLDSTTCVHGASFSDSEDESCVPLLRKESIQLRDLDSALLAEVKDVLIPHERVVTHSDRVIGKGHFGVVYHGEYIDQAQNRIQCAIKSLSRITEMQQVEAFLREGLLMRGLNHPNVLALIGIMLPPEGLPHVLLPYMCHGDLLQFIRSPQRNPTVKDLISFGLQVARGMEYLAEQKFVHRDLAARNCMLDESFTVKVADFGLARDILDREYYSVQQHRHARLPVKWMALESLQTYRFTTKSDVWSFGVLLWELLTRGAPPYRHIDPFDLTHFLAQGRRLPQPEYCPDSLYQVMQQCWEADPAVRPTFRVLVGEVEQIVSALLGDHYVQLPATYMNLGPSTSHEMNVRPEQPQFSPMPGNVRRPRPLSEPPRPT
Sequence of Serine/threonine-protein kinase 10 (Homo sapiens) (O94804 whole entry, looked up): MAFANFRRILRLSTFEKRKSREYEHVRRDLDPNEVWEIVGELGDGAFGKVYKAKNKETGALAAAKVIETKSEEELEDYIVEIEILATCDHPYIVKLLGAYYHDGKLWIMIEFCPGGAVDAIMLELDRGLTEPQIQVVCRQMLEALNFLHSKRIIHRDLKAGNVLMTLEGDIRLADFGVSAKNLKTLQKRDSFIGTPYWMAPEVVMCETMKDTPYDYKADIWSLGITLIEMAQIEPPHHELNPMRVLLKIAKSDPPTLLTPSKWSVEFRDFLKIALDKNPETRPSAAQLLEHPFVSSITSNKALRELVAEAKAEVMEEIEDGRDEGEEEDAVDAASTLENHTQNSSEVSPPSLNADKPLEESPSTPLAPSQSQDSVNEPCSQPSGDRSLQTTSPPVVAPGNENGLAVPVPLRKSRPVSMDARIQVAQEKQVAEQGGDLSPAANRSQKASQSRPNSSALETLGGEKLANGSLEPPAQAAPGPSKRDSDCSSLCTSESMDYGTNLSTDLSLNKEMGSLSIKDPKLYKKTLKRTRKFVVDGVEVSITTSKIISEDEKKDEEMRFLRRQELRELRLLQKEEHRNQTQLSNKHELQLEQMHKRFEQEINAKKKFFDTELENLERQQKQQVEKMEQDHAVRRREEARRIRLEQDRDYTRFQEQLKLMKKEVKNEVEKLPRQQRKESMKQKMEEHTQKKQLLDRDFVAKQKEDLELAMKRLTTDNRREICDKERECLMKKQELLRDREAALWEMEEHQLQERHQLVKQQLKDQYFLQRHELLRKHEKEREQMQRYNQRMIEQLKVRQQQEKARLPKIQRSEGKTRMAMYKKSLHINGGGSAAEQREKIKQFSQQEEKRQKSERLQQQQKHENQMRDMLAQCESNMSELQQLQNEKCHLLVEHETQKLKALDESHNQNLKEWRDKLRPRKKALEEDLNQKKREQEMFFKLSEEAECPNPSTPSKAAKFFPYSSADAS
Sequence of Tyrosine-protein kinase FRK (Homo sapiens) (P42685 whole entry): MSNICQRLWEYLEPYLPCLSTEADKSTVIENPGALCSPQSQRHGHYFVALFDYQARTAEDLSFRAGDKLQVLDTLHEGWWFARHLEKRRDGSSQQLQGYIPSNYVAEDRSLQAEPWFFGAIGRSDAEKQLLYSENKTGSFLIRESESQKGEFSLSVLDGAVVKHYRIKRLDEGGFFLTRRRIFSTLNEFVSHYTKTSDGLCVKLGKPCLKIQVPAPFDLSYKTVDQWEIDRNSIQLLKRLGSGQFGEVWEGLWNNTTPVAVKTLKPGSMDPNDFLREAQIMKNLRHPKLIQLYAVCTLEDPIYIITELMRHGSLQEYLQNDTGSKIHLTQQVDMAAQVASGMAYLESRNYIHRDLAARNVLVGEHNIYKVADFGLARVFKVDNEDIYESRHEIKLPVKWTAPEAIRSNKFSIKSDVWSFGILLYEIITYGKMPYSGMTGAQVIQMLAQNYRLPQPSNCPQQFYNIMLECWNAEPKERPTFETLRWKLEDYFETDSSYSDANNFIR
Sequence of G protein-coupled receptor kinase 6 (Homo sapiens) (P43250 whole entry, looked up): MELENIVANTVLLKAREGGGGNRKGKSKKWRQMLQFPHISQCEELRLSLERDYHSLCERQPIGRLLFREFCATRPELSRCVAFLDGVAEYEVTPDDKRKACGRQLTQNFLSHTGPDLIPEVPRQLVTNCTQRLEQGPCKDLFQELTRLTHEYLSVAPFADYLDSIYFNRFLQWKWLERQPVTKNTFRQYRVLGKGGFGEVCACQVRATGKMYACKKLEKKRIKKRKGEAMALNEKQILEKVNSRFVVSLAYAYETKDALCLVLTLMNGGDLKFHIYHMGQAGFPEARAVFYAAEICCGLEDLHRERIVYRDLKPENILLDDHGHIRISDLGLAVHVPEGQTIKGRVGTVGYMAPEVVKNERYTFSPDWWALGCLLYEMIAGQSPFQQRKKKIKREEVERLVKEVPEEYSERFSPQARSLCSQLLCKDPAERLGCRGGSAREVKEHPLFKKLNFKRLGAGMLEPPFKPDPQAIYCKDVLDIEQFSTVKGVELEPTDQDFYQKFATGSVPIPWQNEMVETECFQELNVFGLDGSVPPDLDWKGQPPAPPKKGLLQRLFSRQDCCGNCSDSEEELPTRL

`CC[C@@H](Nc1c(C#N)c(-c2ccc(-c3cccc(C)c3F)cc2)nc2cnccc12)C(=O)O` [BAY-091] returned a % of inhibition in experiment [1] of 23.6%. On to `N#Cc1cccc(-c2c[nH]c3ncnc(N4CCOCC4)c23)c1`, for which the % of control in experiment [2] was 100%.

`Cc1cc(F)c(C(=O)Nc2cccc(-c3nncn3C(C)C)n2)cc1-n1cnc(C2CC2)c1`: the % of control in experiment [3] was 78%. Take `Cc1cc([C@@H](C)Nc2ccccc2C(=O)O)c2nc(N3CCOCC3)cc(=O)n2c1` [AZD-6482]: the % of control in [4] and in experiment [5] was 100% throughout. Regarding `CC[C@@H]1[C@H](F)C(=O)N[C@@H]1COc1nccc2cc(C(N)=O)c(OC)cc12` [ZIMLOVISERTIB], in experiment [6], the % of inhibition turned out to be 3.09%. For the compound `C=CC(=O)Nc1cccc(C(=O)Nc2ccc(Nc3cc(-c4[nH]c(SC)nc4C)ccn3)cc2)c1`, the % of control amounted to 92% in experiment [7] (at 1 µM), 104% in experiment [7] (at 5 µM), 107% in [8] (at 1 µM) and 102% in experiment [8] (at 5 µM). In experiment [9], `COc1cc(Nc2nc(C)cc(-c3cnn4nc(OC)ccc34)n2)cc(C(F)(F)F)c1` had a % of control of 100%. For the compound `Nc1cnc(N2CCc3cc(S(=O)(=O)Nc4c(F)cc(Cl)cc4F)cc(N4CCCC4=O)c32)nc1` [TP-020n], in [10], the % of control came to 100%.
